In patent US20140005163A1 (NOVARTIS AG, priority 2010, published 2014):
Converted amounts (≈) assume the structure as drawn. Read-outs that look alike come from different tables or passages of the source.

Columns and labels:
[1] = tested on: PKB Ser473 phosphorylation in Rat1-myr-HA-p110 alpha cells; test: Reverse protein array assay, PKB Ser473 phosphorylation in Rat1-myr-p110 alpha cells; format: cell-based; settings: 0.5 h, pAkt Ser473, 30 minutes compound incubation, read-out: p-PKB IC50
In short: (§1)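 Measured: PKB Ser473 phosphorylation by reverse protein array in Rat1 cells expressing myr-HA-p110 alpha, beta or delta, after 30 min compound treatment at 37 °C with 0.2% DMSO vehicle.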

mTOR = target: T1, mTOR (Homo sapiens, UniProt P42345); test: Biochemical assay for m-TOR by TR-FRET; settings: 8 μM ATP, 400 nM GFP-4EBP1, 0.5 nM mTOR
T1 construct: purchased Invitrogen Corporation (Carlsbad/CA, USA) PV4753
T1 sequence (P42345 1360-2549 limits assumed): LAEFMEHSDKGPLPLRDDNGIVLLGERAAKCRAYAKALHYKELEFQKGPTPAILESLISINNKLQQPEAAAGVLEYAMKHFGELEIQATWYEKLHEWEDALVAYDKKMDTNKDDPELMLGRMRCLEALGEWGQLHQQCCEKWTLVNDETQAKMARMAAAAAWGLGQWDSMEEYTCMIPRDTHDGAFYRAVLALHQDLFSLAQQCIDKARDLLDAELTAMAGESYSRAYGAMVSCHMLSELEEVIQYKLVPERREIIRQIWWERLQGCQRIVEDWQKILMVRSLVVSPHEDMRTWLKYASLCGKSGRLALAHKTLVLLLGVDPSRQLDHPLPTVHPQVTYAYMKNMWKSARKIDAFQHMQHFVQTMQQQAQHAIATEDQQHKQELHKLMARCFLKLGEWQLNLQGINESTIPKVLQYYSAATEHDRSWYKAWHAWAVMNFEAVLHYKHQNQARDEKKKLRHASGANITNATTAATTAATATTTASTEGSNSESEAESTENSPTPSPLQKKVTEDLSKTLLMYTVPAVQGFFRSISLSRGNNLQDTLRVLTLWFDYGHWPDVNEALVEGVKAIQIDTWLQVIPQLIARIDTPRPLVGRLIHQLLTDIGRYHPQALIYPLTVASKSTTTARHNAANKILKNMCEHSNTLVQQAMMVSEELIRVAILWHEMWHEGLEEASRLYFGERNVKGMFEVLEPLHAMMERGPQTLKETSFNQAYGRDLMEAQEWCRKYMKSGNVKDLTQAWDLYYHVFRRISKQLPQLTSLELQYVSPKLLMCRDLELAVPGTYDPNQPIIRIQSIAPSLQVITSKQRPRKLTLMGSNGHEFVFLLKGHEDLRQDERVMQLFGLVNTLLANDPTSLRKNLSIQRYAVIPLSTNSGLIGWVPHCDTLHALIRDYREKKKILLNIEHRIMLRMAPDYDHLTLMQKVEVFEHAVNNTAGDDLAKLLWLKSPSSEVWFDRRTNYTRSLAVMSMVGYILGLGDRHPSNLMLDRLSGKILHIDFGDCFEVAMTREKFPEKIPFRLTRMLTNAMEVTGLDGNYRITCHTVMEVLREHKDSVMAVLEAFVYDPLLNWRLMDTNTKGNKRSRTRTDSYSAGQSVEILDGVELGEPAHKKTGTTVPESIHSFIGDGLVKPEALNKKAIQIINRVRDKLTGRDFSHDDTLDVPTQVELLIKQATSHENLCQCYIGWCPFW
In short: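 Steps: ATP (8 μM final) plus GFP-4EBP1 (400 nM final) combined with mTOR (0.5 nM final), incubated at rt; buffer HEPES pH 7.5 with 10 mM MnCl2, NaCl, EGTA, DTT. Then stopped with EDTA/Tb3+-anti-p4EBP1 pT46 Ab (0.5 nM). Plates read after 15 min.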

[2] = tested on: PKB Ser473 phosphorylation in Rat1-myr-HA-p110 delta cells; test: Reverse protein array assay, PKB Ser473 phosphorylation in Rat1-myr-p110 delta cells; format: cell-based; settings: read-out: p-PKB IC50
In short: as §1

[3] = tested on: S6 Ribosomal Protein phosphorylation Ser235/236 in TSC1 null mouse embryo fibroblast (MEF) cells; test: Reverse protein array assay, S6 Ribosomal Protein phosphorylation Ser235/236 in TSC1 null MEF cells; format: cell-based; settings: 1 h, pS6 ribosomal protein Ser235/236, 60 minutes incubation, read-out: p-S6 IC50
In short: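 TSC1−/− MEFs, seeded and held ≥20 h at 37 °C/5% CO2, were exposed to 8-step serial compound dilutions (0.02% DMSO final; DMSO vehicle control) for 60 min at 37 °C. Cells were then lysed on ice for 10 min and lysates spotted onto reverse protein array chips.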

[4] = tested on: PKB Ser473 phosphorylation in Rat1-myr-HA-p110 beta cells; test: Reverse protein array assay, PKB Ser473 phosphorylation in Rat1-myr-p110 beta cells; format: cell-based; settings: 0.5 h, pAkt Ser473, 30 minutes incubation, read-out: p-PKB IC50
In short: as §1

Solubility at pH 6.8 = format: physicochemical
In short: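 Solubility was measured at pH 6.8 following the cited Zhou et al. (2007) procedure.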

[5] = pH 6.8, aqueous buffer, thermodynamic from solid, read-out: solubility

| SMILES | IC50 [1] | IC50 (mTOR) | IC50 [2] | IC50 [4] | solubility (Solubility at pH 6.8; [5]) | solubility (Solubility at pH 6.8; pH 6.8) | IC50 [3] |
| --- | --- | --- | --- | --- | --- | --- | --- |
| CCOc1ccc(-c2ccc3ncc4c(c3c2)n(-c2cn(C)nc2C)c(=O)n4C)cc1OC [Example 29.3, 1-(1,3-Dimethyl-1H-pyrazol-4-yl)-8-(4-ethoxy-3-methoxy-phenyl)-3-methyl-1,3-dihydro-imidazo[4,5-c]quinolin-2-one] | 0.008 µM | 0.007 µM | 0.038 µM | 0.015 µM | – | 2 µg/mL (≈ 4.51 µM) | 0.004 µM |
| CCOc1ccc(-c2ccc3ncc4c(c3c2)n(-c2cn(CC)nc2C)c(=O)n4C)cn1 [Example 3.5, 8-(6-Ethoxy-pyridin-3-yl)-1-(1-ethyl-3-methyl-1H-pyrazol-4-yl)-3-methyl-1,3-dihydro-imidazo[4,5-c]quinolin-2-one] | 0.035 µM | 0.017 µM | 0.137 µM | 0.029 µM | 4 µg/mL (≈ 9.33 µM) | – | 0.058 µM |
| Cc1nn(C)cc1-n1c(=O)n(C)c2cnc3ccc(-c4cccc(S(C)(=O)=O)c4)cc3c21 [Example 40, 1-(1,3-Dimethyl-1H-pyrazol-4-yl)-8-(3-methanesulfonyl-phenyl)-3-methyl-1,3-dihydro-imidazo[4,5-c]quinolin-2-one] | 0.077 µM | 0.071 µM | 0.138 µM | 0.065 µM | – | 2 µg/mL (≈ 4.47 µM) | 0.036 µM |
| Cc1nn(C)cc1-n1c(=O)n(C)c2cnc3ccc(-c4cnc5cc[nH]c5c4)cc3c21 [Example 99, 1-(1,3-Dimethyl-1H-pyrazol-4-yl)-3-methyl-8-(1H-pyrrolo[3,2-b]pyridin-6-yl)-1,3-dihydro-imidazo[4,5-c]quinolin-2-one] | 0.013 µM | < 0.003 µM | 0.019 µM | 0.016 µM | – | 2 µg/mL (≈ 4.88 µM) | 0.004 µM |

Second part, led by results:

| IC50 [1] | IC50 (mTOR) | IC50 [2] | IC50 [4] | solubility (Solubility at pH 6.8; [5]) | solubility (Solubility at pH 6.8; pH 6.8) | SMILES | IC50 [3] |
| --- | --- | --- | --- | --- | --- | --- | --- |
| < 0.005 µM | 0.004 µM | 0.021 µM | < 0.005 µM | 70 µg/mL (≈ 169 µM) | – | CCn1cc(-n2c(=O)n(C)c3cnc4ccc(-c5ccc(NC)nc5)cc4c32)c(C)n1 [Example 118.4, 1-(1-Ethyl-3-methyl-1H-pyrazol-4-yl)-3-methyl-8-(6-methylamino-pyridin-3-yl)-1,3-dihydro-imidazo[4,5-c]quinolin-2-one] | 0.002 µM |
| 0.035 µM | 0.058 µM | 0.091 µM | 0.072 µM | 4 µg/mL (≈ 8.48 µM) | – | CCNc1ncc(-c2ccc3ncc4c(c3c2)n(-c2cn(C)nc2C)c(=O)n4C)cc1COCC [Example 167, 1-(1,3-Dimethyl-1H-pyrazol-4-yl)-8-(5-ethoxymethyl-6-ethylamino-pyridin-3-yl)-3-methyl-1,3-dihydro-imidazo[4,5-c]quinolin-2-one] | 0.007 µM |
| 0.008 µM | 0.021 µM | 0.101 µM | 0.16 µM | 150 µg/mL (≈ 348 µM) | – | COc1cc(-c2ccc3ncc4c(c3c2)n(-c2cn(C)nc2C)c(=O)n4C)cnc1CO [Example 193, 1-(1,3-Dimethyl-1H-pyrazol-4-yl)-8-(6-hydroxymethyl-5-methoxy-pyridin-3-yl)-3-methyl-1,3-dihydro-imidazo[4,5-c]quinolin-2-one] | 0.00553 µM |
| 0.214 µM | 0.161 µM | 0.418 µM | 0.248 µM | – | 2 µg/mL (≈ 4.83 µM) | CCOc1ccc(-c2ccc3ncc4c(c3c2)n(-c2ccnn2CC)c(=O)n4C)cn1 [Example 3.4, 8-(6-Ethoxy-pyridin-3-yl)-1-(2-ethyl-2H-pyrazol-3-yl)-3-methyl-1,3-dihydro-imidazo[4,5-c]quinolin-2-one] | 0.199 µM |
| 0.102 µM | 0.619 µM | 0.141 µM | 0.104 µM | – | 2 µg/mL (≈ 4.49 µM) | CCNc1cc(-c2ccc3ncc4c(c3c2)n(-c2c(C)nn(C)c2C)c(=O)n4C)cnc1F [Example 154.1, 8-(5-Ethylamino-6-fluoro-pyridin-3-yl)-3-methyl-1-(1,3,5-trimethyl-1H-pyrazol-4-yl)-1,3-dihydro-imidazo[4,5-c]quinolin-2-one] | 0.003 µM |
